Columns and labels:
lysosomes = experiment: Colocalization with Lysotracker Red by fluorescence microscopy; assay type: cell-based; conditions: live THP-1 cells
Experimental: (§1) A. LTI studies: Aliquots of THP-1 cells (Cell densities were 1×10^6 cells per mL) were exposed to either 100 nM InstantLyso LLT-1 in RPMI 1640 medium with 10% FCS at 37° C., 5% CO2, both InstantLyso LLT-1 and 100 nM Lysotracker Red (Molecular Probes, Eugene Oreg.), or both InstantLyso LLT-1 and at a concentration of 75 nM. Mitotracker Red (Molecular Probes). In each case, medium is first pipetted off cells, then warmed medium containing dyes is added. The cell suspension is incubated for 30 minutes at 37° C. and examined by microscopy.
Colocalization of InstantLyso LLT-1 with Lysotracker red were performed under the following conditions: Live THP-1 Leukemic monocytes were grown in RPMI 1640 medium at 37C. and 5% CO2 for 5 days. 2 mL of cells were allowed to adhere to a Biocoat (polylysine coated) glass bottomed cell culture plate for 30 minutes at 37C. The old medium was removed and 2 mLs of 37 C fresh media containing 1 00 nM InstantLyso LLT-1 (from 10 μM DMSO stock) and 100 nM Lysotracker Red (from 1 mM DMSO stock) was added. Cells were incubated at 37C for 30 minutes. And visualized with an inverted epifluorescence microscope at 600× using a blue/purple (450/50 ex and 510/50 em with D480 mirror) cube for InstantLyso LLT-1 and a green (560/50 ex and 646/40 em with D595 mirror). Exposure was automatic. Temperature was ambient. […]

mitochondria = experiment: Colocalization with Mitotracker Red by fluorescence microscopy; assay type: cell-based
Experimental: as §1
(§2) B. InstantLipo Sep-1 studies: Aliquots of either THP-1 cells or adherent human fibroblasts were exposed to either 200 nM InstantLipo Sep-1in RPMI 1640 medium with 10% FCS at 37 C, 5% CO2, both InstantLipo Sep-1and Vybrant lipid raft kit (Molecular Probes, used according to the manufacturer's instructions), both InstantLipo Sep-1and Mitotracker Red (Molecular Probes, used according to the manufacturer's instructions), or both InstantLipo Sep-1and Lysotracker Red. Cells were incubated at 37° C. for at least 20 minutes. […] Some of the punctate structures moved rapidly when observed by confocal microscopy in living cells. Conditions for colocalization are as follows: Live THP-1 Leukemic monocytes were grown in RPMI 1640 medium at 37 C and 5% CO2 for 5 days. […]

THP-1 cells [1] = conditions: FIG. 24, concentration not given
cholesterol-rich domains = experiment: Staining of fibroblasts treated with cholesterol transport inhibitor U18666A; assay type: cell-based, human; conditions: foreskin fibroblasts, 3 μg/mL U18666A overnight, 150 nM dye, 30 minutes
Experimental: Similarly, 3 μg/mL from H20 stock of aminoesterol U18666A (Calbiochem)) is often used with fibroblasts to inhibit intracellular cholesterol transport and leads to accumulation of cholesterol in nuclear regions (C. F. Roff, E. Goldin, M. E. Comly, A. Cooney, A. Brown, M. T. Vanier, S. P. Miller, R. O. Brady and P. G. Pentchev, Dev Neurosci 13 (1991) 315-9). Foreskin fibroblasts were grown on coverslips for 1 day in EMEM. Medium was removed and replaced with 2 mL fresh EMEM to ensure consistent treatment as cells that were treated with U18666A. Cells were incubated at 37° C. and 5% CO2 overnight. Medium was removed and replaced with 2 mL EMEM containing 200 nM InstantLipo Sep-1. Cells were then incubated at 37° C. and 5% CO2 for 30 minutes to allow dye to load. Cells were imaged using an epifluorescence microscope at 1000× magnification while excited with a purple cube.
Foreskin fibroblasts were grown on coverslips for 3 days in EMEM. Medium was removed and replaced with 2 mL EMEM containing 3μg/mL U18666A. Cells were incubated at 37° C. and 5% CO2 overnight. Medium was removed and replaced with 2 mL EMEM containing 150 nM InstantGolgi McN-1. Cells were then incubated at 37° C. and 5% CO2 for 30 minutes to allow dye to load. […] This is consistent with the staining of more numerous and pathological cholesterol-rich domains and vesicles. […]

THP-1 cells [2] = experiment: Staining pattern in live THP-1 cells; assay type: cell-based; conditions: THP-1 monocytic cells, 100 nM dye, 30 minutes
Experimental: as §1, §2

Structure (SMILES)	colocalization with lysosomes (Lysotracker Red) (lysosomes; 150 nM dye + 75 nM Lysotracker Red)	colocalization with mitochondria (MitoTracker Red) (mitochondria; live THP-1 cells, 150 nM dye + 50 nM MitoTracker Red)	cytotoxicity / viability (Trypan blue) (THP-1 cells [1])	staining change after U18666A (cholesterol-rich domains)	co-localization with Lysotracker Red (lysosomes; 100 nM dye + 100 nM Lysotracker Red, 30 minutes)	staining pattern (THP-1 cells [2])	co-localization with Mitotracker Red (mitochondria; THP-1 cells, 100 nM dye + 75 nM Mitotracker Red, 30 minutes)
CCCCCCN1C(=O)c2cccc3c(NCCNS(=O)(=O)c4ccc(C)cc4)ccc(c23)C1=O [InstantGolgi McN-1, N-hexyl-4-[2-(4-toluensulfonyl)aminoethyl]amino-1,8-naphthalimide]	limited colocalization with lysosomes and mitochondria	limited colocalization with lysosomes and mitochondria	no significant cytotoxicity	more punctate bright spots in cells after inhibition			
CCCCCCN1C(=O)c2cccc3c(NCCN)ccc(c23)C1=O [InstantLyso LLT-1, 6-(2-aminoethyl)amino-2-hexyl-1H-benz[de]isoquinoline-1,3-(2H)-dione]					positive co-localization	staining in punctate structures	failed to exhibit such co-localization

— patent publication US7528144B2, “Molecules and methods for fluorescence microscopy” (WiSys Technology Foundation, Inc., priority 2005, dated 2009)
